From patent US6737383B1, “Herbicidal oxadiazolidines” (priority 1999, dated 2004)

What was measured:
rape = test: Test B pre/postemergence rape; assay type: in vivo, Brassica napus
Summary of the method: (§1)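 Herbicidal effect was estimated by eye on a ten-point control scale after plants spent twelve to sixteen days in a greenhouse following soil or foliar treatment. Foliar sprays targeted plants at one to four leaves; all doses were formulated in a non-phytotoxic solvent with surfactant.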

corn = test: Test B pre/postemergence corn; assay type: in vivo, Zea mays
Summary of the method: as §1

velvetleaf = test: Test B pre/postemergence velvetleaf; assay type: in vivo, Abutilon theophrasti; settings: for Plant response rating, Velvetleaf: Postemergence
Summary of the method: as §1

surinam grass = test: Test B pre/postemergence surinam grass; assay type: in vivo, Brachiaria decumbens; settings: for Plant response rating, B. signalgrass: scale of 0 to 10 where 0 is no effect and 10 is complete control
Summary of the method: as §1

purple nutsedge = test: Test B pre/postemergence purple nutsedge; assay type: in vivo, Cyperus rotundus; settings: for Nutsedge plant response rating: Rate 125 g/ha, scale 0 to 10, 0 is no effect, 10 is complete control
Summary of the method: as §1

crabgrass = test: Test B pre/postemergence crabgrass; assay type: in vivo, Digitaria sanguinalis
Summary of the method: as §1

pigweed = test: Test B pre/postemergence pigweed; assay type: in vivo, Amaranthus retroflexus; settings: for Plant response rating, Redroot pigweed: Postemergence
Summary of the method: as §1

wild oat = test: Test B pre/postemergence wild oat; assay type: in vivo, Avena fatua; settings: for Plant response rating, Wild oats: Postemergence
Summary of the method: as §1

morningglory = test: Test B pre/postemergence morningglory; assay type: in vivo, Ipomoea hederacea
Summary of the method: as §1

sugar beet = test: Test B pre/postemergence sugar beet; assay type: in vivo, Beta vulgaris
Summary of the method: as §1

blackgrass = test: Test B pre/postemergence blackgrass; assay type: in vivo, Alopecurus myosuroides
Summary of the method: as §1

cocklebur = test: Test B pre/postemergence cocklebur; assay type: in vivo, Xanthium strumarium
Summary of the method: as §1

wheat = test: Test B pre/postemergence wheat; assay type: in vivo, Triticum aestivum; settings: for Plant response rating, Wheat: Postemergence
Summary of the method: as §1

giant foxtail = test: Test B pre/postemergence giant foxtail; assay type: in vivo, Setaria faberii
Summary of the method: as §1

soybean = test: Test B pre/postemergence soybean; assay type: in vivo, Glycine max; settings: for Plant response rating, Soybean: Postemergence
Summary of the method: as §1

bedstraw = test: Test B pre/postemergence bedstraw; assay type: in vivo, Galium aparine; settings: Preemergence
Summary of the method: as §1

[1] = Postemergence, Rate 62 g/ha, scale of 0 to 10, 0 is no effect, 10 is complete control
[2] = Postemergence, Rate 125 g/ha, scale 0 to 10, 0 is no effect, 10 is complete control
[3] = Postemergence, Rate 500 g/ha, scale of 0 to 10 where 0 is no effect and 10 is complete control
[4] = Preemergence, Rate 62 g/ha, scale 0 to 10 (0 no effect, 10 complete control)
[5] = Preemergence, Rate 125 g/ha, scale 0 to 10, 0 is no effect, 10 is complete control
[6] = Preemergence, Rate 500 g/ha, scale of 0 to 10 where 0 is no effect and 10 is complete control
[7] = Rate 250 g/ha, Postemergence, scale of 0 to 10 where 0 is no effect and 10 is complete control
[8] = Rate 500 g/ha, scale of 0 to 10 where 0 is no effect and 10 is complete control
[9] = Rate 250 g/ha, scale of 0 to 10 where 0 is no effect and 10 is complete control

Structure (SMILES): C=CCCCn1c(=O)on(C(=O)N(c2ccccc2)C(C)C)c1=O [Compound 575]
- Rape plant response rating (rape; [1]): 0
- Rape plant response rating (rape; [2]): 0
- Plant response rating, Rape (rape; [3]): 3
- Rape plant response rating (rape; [4]): 0
- Rape plant response rating (rape; [5]): 2
- Rape plant response rating (0 to 10 scale) (rape; Preemergence, Rate 250 g/ha): 2
- Rape plant response rating (rape; [6]): 2
- Plant response rating, Rape (rape; [7]): 3
- Corn plant response rating (corn; [1]): 0
- Corn plant response rating (corn; [2]): 0
- Plant response rating, Corn (corn; [3]): 0
- Corn plant response rating (corn; [4]): 0
- Corn plant response rating (corn; [5]): 0
- Corn plant response rating (0 to 10 scale) (corn; Preemergence, Rate 250 g/ha): 0
- Corn plant response rating (corn; [6]): 3
- Plant response rating, Corn (corn; [7]): 0
- Plant response rating, Velvetleaf (velvetleaf; [8]): 3
- Velvetleaf plant response rating (velvetleaf; [4]): 0
- Velvetleaf plant response rating (velvetleaf; [5]): 0
- Velvetleaf plant response rating (0 to 10 scale) (velvetleaf; Preemergence, Rate 250 g/ha): 0
- Velvetleaf plant response rating (velvetleaf; [6]): 2
- Plant response rating, Velvetleaf (velvetleaf; [9]): 2
- B. signalgrass plant response rating (surinam grass; [1]): 0
- B. signalgrass plant response rating (surinam grass; [2]): 0
- Plant response rating, B. signalgrass (surinam grass; Postemergence, Rate 500 g/ha): 3
- B. signalgrass plant response rating (surinam grass; [4]): 6
- B. signalgrass plant response rating (surinam grass; [5]): 9
- B. signalgrass plant response rating (0 to 10 scale, 0 is no effect, 10 is complete control) (surinam grass; Preemergence, Rate 250 g/ha): 10
- Plant response rating, B. signalgrass (surinam grass; Rate 250 g/ha, Postemergence): 0
- Nutsedge plant response rating (purple nutsedge; Postemergence): 0
- Nutsedge plant response rating (purple nutsedge; Preemergence): 0
- Nutsedge plant response rating (0 to 10 scale) (purple nutsedge; Preemergence, Rate 250 g/ha): 0
- Plant response rating, Nutsedge (purple nutsedge; [7]): 0
- Crabgrass plant response rating (crabgrass; [1]): 0
- Crabgrass plant response rating (crabgrass; [2]): 2
- Plant response rating, Crabgrass (crabgrass; [3]): 9
- Crabgrass plant response rating (crabgrass; [4]): 8
- Crabgrass plant response rating (crabgrass; [5]): 9
- Crabgrass plant response rating (0 to 10 scale) (crabgrass; Preemergence, Rate 250 g/ha): 9
- Crabgrass plant response rating (crabgrass; [6]): 9
- Plant response rating, Crabgrass (crabgrass; [7]): 9
- Plant response rating, Redroot pigweed (pigweed; [8]): 7
- Redroot pigweed plant response rating (pigweed; [4]): 9
- Redroot pigweed plant response rating (pigweed; [5]): 9
- Redroot pigweed plant response rating (0 to 10 scale) (pigweed; Preemergence, Rate 250 g/ha): 10
- Redroot pigweed plant response rating (pigweed; [6]): 10
- Plant response rating, Redroot pigweed (pigweed; [9]): 4
- Plant response rating, Wild oats (wild oat; [8]): 0
- Wild oats plant response rating (wild oat; [4]): 0
- Wild oats plant response rating (wild oat; [5]): 0
- Wild oats plant response rating (0 to 10 scale) (wild oat; Preemergence, Rate 250 g/ha): 2
- Wild oats plant response rating (wild oat; [6]): 2
- Plant response rating, Wild oats (wild oat; [9]): 0
- Morningglory plant response rating (morningglory; [1]): 4
- Morningglory plant response rating (morningglory; [2]): 6
- Plant response rating, Morningglory (morningglory; [3]): 10
- Morningglory plant response rating (morningglory; [4]): 0
- Morningglory plant response rating (morningglory; [5]): 0
- Morningglory plant response rating (0 to 10 scale) (morningglory; Preemergence, Rate 250 g/ha): 0
- Morningglory plant response rating (morningglory; [6]): 2
- Plant response rating, Morningglory (morningglory; [7]): 9
- Plant response rating, Sugarbeets (sugar beet; [3]): 2
- Sugarbeets plant response rating (sugar beet; [4]): 0
- Sugarbeets plant response rating (sugar beet; [5]): 0
- Sugarbeets plant response rating (0 to 10 scale) (sugar beet; Preemergence, Rate 250 g/ha): 0
- Sugarbeets plant response rating (sugar beet; [6]): 2
- Blackgrass plant response rating (blackgrass; [1]): 0
- Blackgrass plant response rating (blackgrass; [2]): 0
- Plant response rating, Blackgrass (blackgrass; [3]): 3
- Blackgrass plant response rating (blackgrass; [4]): 2
- Blackgrass plant response rating (blackgrass; [5]): 6
- Blackgrass plant response rating (0 to 10 scale) (blackgrass; Preemergence, Rate 250 g/ha): 7
- Blackgrass plant response rating (blackgrass; [6]): 2
- Plant response rating, Blackgrass (blackgrass; [7]): 0
- Cocklebur plant response rating (cocklebur; [1]): 0
- Cocklebur plant response rating (cocklebur; [2]): 0
- Plant response rating, Cocklebur (cocklebur; [3]): 2
- Cocklebur plant response rating (cocklebur; [4]): 0
- Cocklebur plant response rating (cocklebur; [5]): 0
- Cocklebur plant response rating (0 to 10 scale) (cocklebur; Preemergence, Rate 250 g/ha): 0
- Cocklebur plant response rating (cocklebur; [6]): 0
- Plant response rating, Cocklebur (cocklebur; [7]): 0
- Plant response rating, Wheat (wheat; [8]): 2
- Wheat plant response rating (wheat; [4]): 0
- Wheat plant response rating (wheat; [5]): 0
- Wheat plant response rating (0 to 10 scale) (wheat; Preemergence, Rate 250 g/ha): 0
- Wheat plant response rating (wheat; [6]): 0
- Plant response rating, Wheat (wheat; [9]): 0
- Giant foxtail plant response rating (giant foxtail; [2]): 2
- Giant foxtail plant response rating (giant foxtail; [4]): 8
- Giant foxtail plant response rating (giant foxtail; [5]): 10
- Giant foxtail plant response rating (0 to 10 scale) (giant foxtail; Preemergence, Rate 250 g/ha): 10
- Giant foxtail plant response rating (giant foxtail; [6]): 10
- Plant response rating, Giant foxtail (giant foxtail; [7]): 8
- Plant response rating, Soybean (soybean; [8]): 6
- Soybean plant response rating (soybean; [4]): 0
- Soybean plant response rating (soybean; [5]): 0
- Soybean plant response rating (0 to 10 scale) (soybean; Preemergence, Rate 250 g/ha): 0
- Soybean plant response rating (soybean; [6]): 0
- Plant response rating, Soybean (soybean; [9]): 5
- Bedstraw plant response rating (bedstraw; Rate 62 g/ha, scale 0 to 10 (0 no effect, 10 complete control)): 0
- Bedstraw plant response rating (bedstraw; Rate 125 g/ha, scale 0 to 10, 0 is no effect, 10 is complete control): 0
- Bedstraw plant response rating (0 to 10 scale) (bedstraw; Rate 250 g/ha): 0
- Bedstraw plant response rating (bedstraw; [8]): 0
